{"source": "patent US10729668B2", "about": "“Ketobutyrate compounds and compositions for treating age-related symptoms and diseases” (The Regents of the University of California, priority 2014, dated 2020)", "key": {"[1]": {"system": "NADH dehydrogenase (Complex I)", "assay": "NADH dehydrogenase (Complex I) driven coupling assay, isolated liver mitochondria (pyruvate and malate)", "format": "biochemical, mouse", "conditions": "respiration driven by pyruvate and malate", "description": "(§1) Animal studies were performed under approved UCLA animal research protocols. Mitochondria from 3-month-old C57BL/6 mice were isolated. Briefly, livers were extracted, minced at 4° C. in MSHE+BSA (70 mM sucrose, 210 mM mannitol, 5 mM HEPES, 1 mM EGTA, and 0.5% fatty acid free BSA, pH 7.2), and rinsed several times to remove blood. All subsequent steps were performed on ice or at 4° C. The tissue was disrupted in 10 volumes of MSHE+BSA with a glass Dounce homogenizer (5-6 strokes) and the homogenate was centrifuged at 800×g for 10 minutes to remove tissue debris and nuclei. The supernatant was decanted through a cell strainer and centrifuged at 8,000×g for 10 minutes. The dark mitochondrial pellet was resuspended in MSHE+BSA and re-centrifuged at 8,000×g for 10 minutes. The final mitochondrial pellet was resuspended in 30 μl of MAS buffer (70 mM sucrose, 220 mM mannitol, 10 mM KH2PO4, 5 mM MgCl2, 2 mM HEPES, 1 mM EGTA, and 0.2% fatty acid free BSA, pH 7.2). Isolated mitochondrial respiration was measured by running coupling and electron flow assays as described. […]\n(§2) Mitochondrial respiration was measured by running coupling and electron flow assays. […]"}, "[2]": {"molecular_target": "T1, Complex II (Mus musculus, UniProt Q8K2B3+Q9CQA3+Q9CXV1+Q9CZB0)", "T1 construct": "Mitochondria were isolated from mouse liver as described earlier; from tissue; host or cells: liver mitochondria of 3-month-old C57BL/6 mice", "T1 sequence (Q8K2B3 43-664)": "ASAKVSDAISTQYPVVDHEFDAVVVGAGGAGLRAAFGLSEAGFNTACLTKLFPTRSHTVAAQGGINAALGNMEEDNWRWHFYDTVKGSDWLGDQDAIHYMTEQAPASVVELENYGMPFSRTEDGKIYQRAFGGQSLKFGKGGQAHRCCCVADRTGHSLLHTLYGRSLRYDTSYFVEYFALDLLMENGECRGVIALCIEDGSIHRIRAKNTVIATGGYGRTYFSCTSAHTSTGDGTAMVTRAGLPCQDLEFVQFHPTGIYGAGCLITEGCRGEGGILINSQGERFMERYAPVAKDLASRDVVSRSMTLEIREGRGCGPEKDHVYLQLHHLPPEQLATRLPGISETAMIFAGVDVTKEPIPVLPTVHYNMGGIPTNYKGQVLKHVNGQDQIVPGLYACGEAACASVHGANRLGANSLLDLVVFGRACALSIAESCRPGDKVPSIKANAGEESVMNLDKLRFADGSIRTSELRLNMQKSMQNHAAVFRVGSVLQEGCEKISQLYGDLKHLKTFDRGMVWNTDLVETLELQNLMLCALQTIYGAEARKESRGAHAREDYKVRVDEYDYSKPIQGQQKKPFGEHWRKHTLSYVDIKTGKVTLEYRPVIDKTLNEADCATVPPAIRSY", "T1 sequence (Q9CQA3 31-282)": "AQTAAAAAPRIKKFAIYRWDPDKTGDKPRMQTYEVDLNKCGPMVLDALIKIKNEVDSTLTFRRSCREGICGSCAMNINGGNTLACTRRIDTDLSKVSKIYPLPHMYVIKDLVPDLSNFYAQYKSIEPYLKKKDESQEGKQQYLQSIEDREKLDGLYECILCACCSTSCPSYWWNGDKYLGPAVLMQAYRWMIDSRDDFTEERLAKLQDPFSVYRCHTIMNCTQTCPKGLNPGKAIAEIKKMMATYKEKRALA", "T1 sequence (Q9CZB0 30-169)": "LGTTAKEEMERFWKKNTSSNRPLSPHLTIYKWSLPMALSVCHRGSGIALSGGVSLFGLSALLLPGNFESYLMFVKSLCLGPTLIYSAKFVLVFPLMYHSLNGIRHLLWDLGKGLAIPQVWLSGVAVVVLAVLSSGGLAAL", "T1 sequence (Q9CXV1 57-159)": "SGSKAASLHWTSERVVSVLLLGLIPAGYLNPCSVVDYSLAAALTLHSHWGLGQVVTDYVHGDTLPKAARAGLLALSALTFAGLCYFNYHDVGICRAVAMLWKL", "assay": "Complex II driven coupling assay, isolated liver mitochondria (succinate and rotenone)", "format": "biochemical", "conditions": "succinate supplemented", "description": "as §1, §2"}, "[3]": {"system": "C. elegans", "assay": "Lifespan of adult C. elegans on treatment plates", "format": "in vivo, Caenorhabditis elegans", "description": "C. elegans were synchronized by performing either a timed egg lay or an egg preparation (mix <100 gravid worms in 70 μl M9 buffer, 25 μl bleach, and 5 μl 10 N NaOH). Once the worms reached adulthood, they were picked onto NGM treatment plates containing 1.5% dimethyl sulfoxide (DMSO; Sigma D8418), 49.5 μM 5-fluoro-2′-deoxyuridine (FUDR, Sigma F0503), 50 μg/ml ampicillin, and α-KB (Sigma K401). Plates containing α-KB were adjusted to pH 6.0 (i.e., the same pH as the control plates) by the addition of NaOH. Treatment plates were seeded with OP50 E. coli as the C. elegans food source. […] Worms were moved to new plates every 4 days. All lifespan experiments were conducted at 20° C."}, "[4]": {"system": "male mice", "assay": "In vivo ischemia reperfusion injury, coronary artery occlusion", "design": "species or system mouse", "conditions": "800 μM single bolus via tail vein at onset of reperfusion, 24 hours reperfusion, n=6", "description": "The LAD is occluded in male mice for 30 minutes followed by a 24 hour reperfusion. At the onset of reperfusion one bolus of α-KB or PBS was applied via tail vein.\nTo examine the cardioprotective role of α-KB, an in vivo model of ischemia reperfusion injury was used. The left coronary artery was occluded for 30 minutes in male mice followed by 24 hours of reperfusion. One single bolus of PBS (vehicle control) or α-KB (800 μM) was applied through the tail vein at the onset of reperfusion (FIG. 9A)."}, "[5]": {"system": "GMC101 C. elegans strain", "assay": "Paralysis in C. elegans Alzheimer's disease model", "format": "in vivo, Caenorhabditis elegans", "conditions": "4 mM, 30° C.", "description": "Worms were age-synchronized by performing a timed egg lay for 3 hours with about 100 gravid adults and the eggs placed in a 20° C. incubator. Once the eggs had developed to the L4 stage at 42 hours post egg lay, they were picked onto NGM treatment plates containing 49.5 μM 5-fluoro-2′-deoxyuridine (FUDR, Sigma F0503) to prevent progeny production and either 4 mM α-KB or vehicle (water) control. The worms were then shifted to 30° C. to induce amyloid-beta aggregation and paralysis. […] Most paralyzed worms could still move their heads and part of their body. All worms were transferred to fresh treatment plates on Day 4."}, "[6]": {"system": "C57BL/6 male mice", "assay": "Transverse aortic constriction (TAC) induced heart failure and cardiac hypertrophy", "format": "in vivo, mouse", "description": "Surgical procedure was performed one day before treatment with vehicle or α-KB. Cardiac output was assessed 3 weeks post-treatment by determining the cardiac ejection fraction (EF) by echo.\nTransverse aortic constriction (TAC) in mice was used to induce pressure overload-induced heart failure and cardiac hypertrophy. TAC surgical procedure was performed one day before treatment with vehicle or α-KB. C57BL/6 male mice were treated with α-KB at 30 mg/kg body weight per day in drinking water. Cardiac output was assessed 3 weeks post-treatment by determining the cardiac ejection fraction (EF) measured by Echo."}}, "data": [{"molecule": "CCC(=O)C(=O)O", "note": "[α-KB, α-ketobutyrate]", "values": [{"measurement": "ADP-induced and FCCP-induced respiration", "setting": "[1]", "result": "significant decrease"}, {"measurement": "mitochondrial respiration, Complex II-driven coupling", "setting": "[2]", "result": "no effect"}, {"measurement": "lifespan as compared to untreated control subjects", "setting": "[3]; adult C. elegans, 20° C.", "result": "extends the lifespan"}, {"measurement": "potency relative to α-KG in treating, inhibiting, or reducing aging and age-related symptoms", "setting": "[3]; in vivo", "result": "about 1 fold"}, {"measurement": "ratio of infarct size to AAR", "setting": "[4]", "result": "31.2±3.6"}, {"measurement": "delay of paralysis compared to vehicle treated worms", "setting": "[5]", "result": "up to 37%"}, {"measurement": "mortality", "setting": "[6]", "result": "appeared to decrease mortality"}, {"measurement": "heart (mg)/body (g) ratio", "setting": "[6]; end of experiment (5 weeks), Mean, STEDV", "result": "10.72±1.98"}]}]}
